TGI and GI50 data for 22 molecules are collected here from PubChem BioAssay (NCI).

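A five-concentration, 48-hour dose response in 96-well plates underlies each endpoint, interpolated linearly between surrounding concentrations. The concentration for 50% growth inhibition is given as GI50. TGI is the concentration that stops growth completely.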

In the first assay the test system is SK-MEL-5 melanoma. Put plainly: NCI anticancer screen, dose series, 48 h.
Consider `O=C(/C=C\c1ccc(Cl)c(Cl)c1)c1ccc(Cl)cc1Cl`, for which the TGI was determined as 30.8 µM.

Turning to `COc1ccc(-c2nnc(COc3ccc(C(=O)/C=C/c4ccco4)cc3)o2)cc1`, the GI50 was 3.16 µM and the TGI was 11.1 µM.

In the case of `Cc1ccccc1S(=O)(=O)OC1NS(=O)(=O)c2ccccc21` (configuration not stated), the TGI was more than 100 µM.

Regarding `COc1cc2c3c(n(C)c(=O)c2cc1OC)-c1cc2c(cc1/C3=C\CCCN)OCO2`, the GI50 was 2.99 µM and the TGI was 13.8 µM.

Molecule `Cc1ccc(S(=O)(=O)Nc2ccccc2C(=O)c2ccc(C)c(C)c2)cc1` showed a TGI of more than 100 µM.

As to `OC(c1nc2ccccc2[nH]1)C(O)C(O)C(O)c1nc2ccccc2[nH]1` (configuration not stated), the TGI was more than 100 µM.

For a further assay, the system named is MDA-MB-231 breast. As to the kind of experiment: NCI anticancer screen, dose series, 48 h.
In the case of `CN(C(=O)c1ccc(C(F)(F)F)cc1)c1ccc(Oc2ccc3c(c2)cc(C(=O)N2CCN(Cc4ccc(OC(F)F)cc4)CC2)n3C)nc1`, the GI50 is more than 80.2 µM and the TGI is more than 100 µM.

On to `CN1CCN(CCCn2c(=O)c3sc4ncccc4c3n3nnc(-c4ccccc4)c23)CC1`, for which the GI50 was 6.88 µM and the TGI was determined as 13.6 µM.

With `NC1(C(=O)OCc2ccccc2)CCCC1`, the TGI stood at 36.4 µM.

Regarding `O=C(/C=C/c1ccc(Cl)cc1)c1ccc(Nc2ccnc3cc(Cl)ccc23)cc1`, the GI50 is 20.3 µM and the TGI is more than 58.4 µM.

In the case of `CCCCCCCC(=O)SCC/C=C/[C@@H]1CC(=O)NCc2cc(ccn2)C2=N[C@@](C)(CS2)C(=O)N[C@@H](C(C)C)C(=O)O1`, the GI50 is 0.05 µM and the TGI was more than 33.3 µM.

`COc1cc(C2c3cc4c(cc3OC(C)(O)C2C)OCO4)cc(OC)c1OC` (configuration not stated) showed a TGI of 24 µM.

`N#CC(C#N)=CNC(N)=S` registered a TGI of more than 100 µM.

For the molecule `C[C@@H]1CCC2[C@@H](C)[C@@H](OCC(CO[C@H]3OC4O[C@@]5(C)CC[C@H]6[C@H](C)CCC([C@H]3C)[C@@]46OO5)OC(=O)CCC(=O)O)OC3O[C@@]4(C)CC[C@@H]1[C@]32OO4` (some centres not stated), the GI50 was 0.0602 µM and the TGI worked out at 7.95 µM.

The molecule `COc1cc(OC)cc(-c2cc(=O)c3c(OC)c(OC)c(OC)c(OC)c3o2)c1` returned a TGI of more than 100 µM.

In the case of `O=C1OC(O)[C@@H]2[C@H]1[C@H]1CC[C@@H]2O1` (some centres not stated), the GI50 was more than 74.3 µM and the TGI is more than 100 µM.

For the molecule `O=C1c2cc3c(cc2-c2c1c1ccc(F)cc1c(=O)n2CCCNCCO)OCO3`, the GI50 is 0.255 µM and the TGI turned out to be 1.06 µM.

On to `C=C1C(=O)O[C@H]2[C@H]1CC/C(COC(=O)c1c[nH]c3ccccc13)=C\CC[C@@]1(C)O[C@@H]21`, for which the GI50 was 0.197 µM and the TGI was found to be 0.447 µM.

As to `CC(=O)[C@@]12O[C@@H]1CC1C3CCC4=CC(O)CCC4(C)C3CCC12C` (some centres not stated), the GI50 was 12.5 µM and the TGI worked out at 26.8 µM.

As for `CCN1CCN(c2nc(C)cc(N(CCNc3ccnc4cc(Cl)ccc34)Cc3ccc4c(c3)OCO4)n2)CC1`, the GI50 is 1.38 µM and the TGI worked out at 3.19 µM.

As to `COc1ccc(-c2nnc(COc3ccc(C(=O)/C=C/c4ccco4)cc3)o2)cc1`, the GI50 was 2.99 µM and the TGI stood at 10.4 µM.

In turn, `Cc1ccccc1S(=O)(=O)OC1NS(=O)(=O)c2ccccc21` (configuration not stated) had a TGI of more than 100 µM.

For the molecule `COc1cc2c3c(n(C)c(=O)c2cc1OC)-c1cc2c(cc1/C3=C\CCCN)OCO2`, the GI50 was 5.09 µM and the TGI was 31.5 µM.

The molecule `Cc1ccc(S(=O)(=O)Nc2ccccc2C(=O)c2ccc(C)c(C)c2)cc1` returned a TGI of more than 100 µM.

For `OC(c1nc2ccccc2[nH]1)C(O)C(O)C(O)c1nc2ccccc2[nH]1` (configuration not stated), the TGI was more than 100 µM.

Consider `COc1cc2c3c(n(C)c(=O)c2cc1OC)-c1cc2c(cc1/C3=C\CCN)OCO2`, for which the GI50 was 1.36 µM and the TGI was determined as 4.78 µM.

Another assay relates to CCRF-CEM leukemia. Put plainly: NCI anticancer screen, dose series, 48 h.
In turn, `CN(C(=O)c1ccc(C(F)(F)F)cc1)c1ccc(Oc2ccc3c(c2)cc(C(=O)N2CCN(Cc4ccc(OC(F)F)cc4)CC2)n3C)nc1` had a TGI of more than 100 µM.

On to `Cc1cc(-c2ccc3nc(C4CCOCC4)n(CCOC(F)(F)F)c3c2)cn(C)c1=O`, for which the GI50 was 1.71 µM and the TGI is more than 100 µM.

For `CN1CCN(CCCn2c(=O)c3sc4ncccc4c3n3nnc(-c4ccccc4)c23)CC1`, the GI50 is 1.55 µM and the TGI stood at 5.29 µM.

Molecule `NC1(C(=O)OCc2ccccc2)CCCC1` registered a TGI of more than 100 µM.

As for `O=C(/C=C/c1ccc(Cl)cc1)c1ccc(Nc2ccnc3cc(Cl)ccc23)cc1`, the GI50 is 7.3 µM and the TGI was more than 100 µM.

Take `CCCCCCCC(=O)SCC/C=C/[C@@H]1CC(=O)NCc2cc(ccn2)C2=N[C@@](C)(CS2)C(=O)N[C@@H](C(C)C)C(=O)O1`: the GI50 is 0.0231 µM and the TGI is more than 33.3 µM.

For the molecule `COc1cc(C2c3cc4c(cc3OC(C)(O)C2C)OCO4)cc(OC)c1OC` (configuration not stated), the TGI was found to be 16.6 µM.

Molecule `N#CC(C#N)=CNC(N)=S` showed a TGI of more than 100 µM.

As to `C[C@@H]1CCC2[C@@H](C)[C@@H](OCC(CO[C@H]3OC4O[C@@]5(C)CC[C@H]6[C@H](C)CCC([C@H]3C)[C@@]46OO5)OC(=O)CCC(=O)O)OC3O[C@@]4(C)CC[C@@H]1[C@]32OO4` (some centres not stated), the GI50 was less than 0.0279 µM and the TGI is more than 47.3 µM.

`COc1cc(OC)cc(-c2cc(=O)c3c(OC)c(OC)c(OC)c(OC)c3o2)c1` had a TGI of more than 100 µM.

`O=C1OC(O)[C@@H]2[C@H]1[C@H]1CC[C@@H]2O1` (some centres not stated): the GI50 was more than 100 µM and the TGI was more than 100 µM.

`O=C1c2cc3c(cc2-c2c1c1ccc(F)cc1c(=O)n2CCCNCCO)OCO3`: the GI50 was 0.0301 µM and the TGI worked out at 1.27 µM.

For the molecule `C=C1C(=O)O[C@H]2[C@H]1CC/C(COC(=O)c1c[nH]c3ccccc13)=C\CC[C@@]1(C)O[C@@H]21`, the GI50 is 0.058 µM and the TGI turned out to be 0.972 µM.

`CCN1CCN(c2nc(C)cc(N(CCNc3ccnc4cc(Cl)ccc34)Cc3ccc4c(c3)OCO4)n2)CC1`: the GI50 is 2.12 µM and the TGI was 5.88 µM.

As for `O=C(/C=C\c1ccc(Cl)c(Cl)c1)c1ccc(Cl)cc1Cl`, the GI50 is 4.62 µM and the TGI is 64.4 µM.

In the case of `COc1cc2c3c(n(C)c(=O)c2cc1OC)-c1cc2c(cc1/C3=C\CCN)OCO2`, the GI50 was less than 0.0104 µM.
